Values after ≈ are worked out from the molar mass of the structure shown. Active and inactive are the calls of the source. No cut-off for these calls is given here.
Columns and labels:
[1] = test system: Enterococcus faecalis; assay: Antibacterial activity against Streptococcus faecalis MGH-2 by gradient plate test; assay type: functional
[2] = test system: Staphylococcus aureus; assay: Antibacterial activity against Staphylococcus aureus UC-96 by gradient plate test; assay type: functional
[3] = test system: Staphylococcus aureus; assay: Antibacterial activity against drug-resistant Staphylococcus aureus S18713 by gradient plate test; assay type: functional
[4] = test system: Pseudomonas aeruginosa; assay: Antibacterial activity against Pseudomonas aeruginosa 28 by gradient plate test; assay type: functional
[5] = test system: Escherichia coli; assay: Antibacterial activity against Escherichia coli Vogel by gradient plate test; assay type: functional
[6] = test system: Shigella sonnei; assay: Antibacterial activity against Shigella sonnei C-10 by gradient plate test; assay type: functional
[7] = test system: Mycobacterium tuberculosis; assay: Antibacterial activity against Mycobacterium tuberculosis H37Ra by gradient plate test; assay type: functional
[8] = test system: Plasmodium gallinaceum; assay: Antimalarial activity against sporozoite-induced Plasmodium gallinaceum infected in white leghorn chicken assessed as disease cure from parasite infection at 480 mg/kg, sc administered 72 hrs after infection; assay type: functional, organism-based; parameters: dose 480 mg/kg
[9] = test system: Plasmodium gallinaceum; assay: Antimalarial activity against sporozoite-induced Plasmodium gallinaceum infected in white leghorn chicken assessed as disease cure from parasite infection at 240 mg/kg, sc administered 72 hrs after infection; assay type: functional, organism-based; parameters: dose 240 mg/kg
[10] = test system: Plasmodium gallinaceum; assay: Antimalarial activity against sporozoite-induced Plasmodium gallinaceum infected in white leghorn chicken assessed as disease cure from parasite infection at 120 mg/kg, sc administered 72 hrs after infection; assay type: functional, organism-based; parameters: dose 120 mg/kg
[11] = test system: Plasmodium gallinaceum; assay: Antimalarial activity against sporozoite-induced Plasmodium gallinaceum infected in white leghorn chicken assessed as increase in mean survival days of host at 60 mg/kg, sc administered 72 hrs after infection relative to control; assay type: functional; conditions: route subcutaneous
[12] = test system: Plasmodium gallinaceum; assay: Antimalarial activity against sporozoite-induced Plasmodium gallinaceum infected in white leghorn chicken assessed as disease cure from parasite infection at 60 mg/kg, sc administered 72 hrs after infection; assay type: functional, organism-based; parameters: dose 60 mg/kg
[13] = test system: Plasmodium gallinaceum; assay: Antimalarial activity against sporozoite-induced Plasmodium gallinaceum infected in white leghorn chicken assessed as increase in mean survival days of host at 30 mg/kg, sc administered 72 hrs after infection relative to control; assay type: functional; conditions: route subcutaneous
[14] = test system: Plasmodium gallinaceum; assay: Antimalarial activity against sporozoite-induced Plasmodium gallinaceum infected in white leghorn chicken assessed as disease cure from parasite infection at 30 mg/kg, sc administered 72 hrs after infection; assay type: functional, organism-based; parameters: dose 30 mg/kg
[15] = test system: Plasmodium gallinaceum; assay: Antimalarial activity against sporozoite-induced Plasmodium gallinaceum infected in white leghorn chicken assessed as increase in mean survival days of host at 15 mg/kg, sc administered 72 hrs after infection relative to control; assay type: functional; conditions: route subcutaneous
[16] = test system: Plasmodium gallinaceum; assay: Antimalarial activity against sporozoite-induced Plasmodium gallinaceum infected in white leghorn chicken assessed as disease cure from parasite infection at 15 mg/kg, sc administered 72 hrs after infection; assay type: functional, organism-based; parameters: dose 15 mg/kg
[17] = test system: Plasmodium berghei; assay: Antimalarial activity against Plasmodium berghei infected in mouse assessed as increase in mean survival days of host at 640 mg/kg, sc administered 72 hrs after infection relative to control; assay type: functional; conditions: route subcutaneous
[18] = test system: Plasmodium berghei; assay: Antimalarial activity against Plasmodium berghei infected in mouse assessed as increase in mean survival days of host at 320 mg/kg, sc administered 72 hrs after infection relative to control; assay type: functional; conditions: route subcutaneous
[19] = test system: Plasmodium berghei; assay: Antimalarial activity against Plasmodium berghei infected in mouse assessed as increase in mean survival days of host at 160 mg/kg, sc administered 72 hrs after infection relative to control; assay type: functional; conditions: route subcutaneous
[20] = test system: Plasmodium berghei; assay: Antimalarial activity against Plasmodium berghei infected in mouse assessed as increase in mean survival days of host at 80 mg/kg, sc administered 72 hrs after infection relative to control; assay type: functional; conditions: route subcutaneous
[21] = test system: Plasmodium berghei; assay: Antimalarial activity against Plasmodium berghei infected in mouse assessed as increase in mean survival days of host at 40 mg/kg, sc administered 72 hrs after infection relative to control; assay type: functional; conditions: route subcutaneous
[22] = test system: Plasmodium berghei; assay: Antimalarial activity against Plasmodium berghei infected in mouse assessed as increase in mean survival days of host at 20 mg/kg, sc administered 72 hrs after infection relative to control; assay type: functional; conditions: route subcutaneous
[23] = test system: Plasmodium berghei; assay: Antimalarial activity against Plasmodium berghei infected in mouse assessed as increase in mean survival days of host at 10 mg/kg, sc administered 72 hrs after infection relative to control; assay type: functional; conditions: route subcutaneous
[24] = test system: Plasmodium berghei; assay: Antimalarial activity against Plasmodium berghei infected in mouse assessed as disease cure from parasite infection at 640 mg/kg, sc administered 72 hrs after infection; assay type: functional, organism-based; parameters: dose 640 mg/kg
[25] = test system: Plasmodium berghei; assay: Antimalarial activity against Plasmodium berghei infected in mouse assessed as disease cure from parasite infection at 320 mg/kg, sc administered 72 hrs after infection; assay type: functional, organism-based; parameters: dose 320 mg/kg
[26] = test system: Plasmodium berghei; assay: Antimalarial activity against Plasmodium berghei infected in mouse assessed as disease cure from parasite infection at 160 mg/kg, sc administered 72 hrs after infection; assay type: functional, organism-based; parameters: dose 160 mg/kg
[27] = test system: Plasmodium berghei; assay: Antimalarial activity against Plasmodium berghei infected in mouse assessed as disease cure from parasite infection at 80 mg/kg, sc administered 72 hrs after infection; assay type: functional, organism-based; parameters: dose 80 mg/kg
[28] = test system: Plasmodium berghei; assay: Antimalarial activity against Plasmodium berghei infected in mouse assessed as disease cure from parasite infection at 40 mg/kg, sc administered 72 hrs after infection; assay type: functional, organism-based; parameters: dose 40 mg/kg
[29] = test system: Plasmodium gallinaceum; assay: Antimalarial activity against sporozoite-induced Plasmodium gallinaceum infected in white leghorn chicken assessed as increase in mean survival days of host at 120 mg/kg, sc administered 72 hrs after infection relative to control; assay type: functional; conditions: route subcutaneous
[30] = test system: Plasmodium berghei; assay: Antimalarial activity against Plasmodium berghei infected in mouse assessed as increase in mean survival days of host at 5 mg/kg, sc administered 72 hrs after infection relative to control; assay type: functional; conditions: route subcutaneous
[31] = test system: Plasmodium berghei; assay: Antimalarial activity against Plasmodium berghei infected in mouse assessed as increase in mean survival days of host at 2.5 mg/kg, sc administered 72 hrs after infection relative to control; assay type: functional; conditions: route subcutaneous
[32] = test system: Plasmodium berghei; assay: Antimalarial activity against Plasmodium berghei infected in mouse assessed as increase in mean survival days of host at 1.25 mg/kg, sc administered 72 hrs after infection relative to control; assay type: functional; conditions: route subcutaneous
[33] = test system: Plasmodium gallinaceum; assay: Antimalarial activity against trophozoite-induced Plasmodium gallinaceum infected in white leghorn chicken assessed as increase in mean survival days of host at 20 mg/kg, sc administered 72 hrs after infection relative to control; assay type: functional; conditions: route subcutaneous
[34] = test system: Plasmodium gallinaceum; assay: Antimalarial activity against trophozoite-induced Plasmodium gallinaceum infected in white leghorn chicken assessed as increase in mean survival days of host at 10 mg/kg, sc administered 72 hrs after infection relative to control; assay type: functional; conditions: route subcutaneous
[35] = test system: Plasmodium gallinaceum; assay: Antimalarial activity against trophozoite-induced Plasmodium gallinaceum infected in white leghorn chicken assessed as increase in mean survival days of host at 5 mg/kg, sc administered 72 hrs after infection relative to control; assay type: functional; conditions: route subcutaneous
[36] = test system: Plasmodium gallinaceum; assay: Antimalarial activity against trophozoite-induced Plasmodium gallinaceum infected in white leghorn chicken assessed as increase in mean survival days of host at 2.5 mg/kg, sc administered 72 hrs after infection relative to control; assay type: functional; conditions: route subcutaneous
[37] = test system: Plasmodium gallinaceum; assay: Antimalarial activity against trophozoite-induced Plasmodium gallinaceum infected in white leghorn chicken assessed as increase in mean survival days of host at 1.25 mg/kg, sc administered 72 hrs after infection relative to control; assay type: functional; conditions: route subcutaneous
[38] = test system: Plasmodium gallinaceum; assay: Antimalarial activity against trophozoite-induced Plasmodium gallinaceum infected in white leghorn chicken assessed as increase in mean survival days of host at 0.63 mg/kg, sc administered 72 hrs after infection relative to control; assay type: functional; conditions: route subcutaneous

SMILES	MIC [1] [µg/mL]	MIC [2] [µg/mL]	MIC [3] [µg/mL]	MIC [4] [µg/mL]	MIC [5] [µg/mL]	MIC [6] [µg/mL]	MIC [7] [µg/mL]	Activity [8]	Activity [9]	Activity [10]	MST [11] [days]	Activity [12]	MST [13] [days]	Activity [14]	MST [15] [days]	MST [17] [days]	MST [18] [days]	MST [21] [days]	MST [22] [days]	Activity [24]	further results
Nc1nc(N)c2cc(Sc3ccccc3-c3ccccc3)ccc2n1	< 0.25	< 0.25	< 0.25	> 25	2.5 (≈ 7.26 µM)	> 25	20 (≈ 58.1 µM)	Active	Active	Active	0	Active	0	Active	0	16.4	12.5	0.5	0.5	Active	Activity [16]: Active; MST [19]: 5.7 days; MST [20]: 3.3 days; MST [23]: 0.3 days
Nc1nc(N)c2c(Cl)c(Sc3ccccc3Cl)ccc2n1	< 0.25	< 0.25	< 0.25	> 25	< 0.25	1 (≈ 2.97 µM)	> 25									24.9	24.4	10.2	4.7	Active	MST [19]: 14.9 days; MST [20]: 11.7 days; Activity [25]: Active; Activity [26]: Active; Activity [27]: Active; Activity [28]: Active
Nc1nc(N)c2cc(Sc3cccc(-c4ccccc4)c3)ccc2n1	< 0.25	< 0.25	< 0.25	> 25	10 (≈ 29 µM)	> 25	> 25	Active	Active	Active	0.3	Active	1	Active	0.7			17.4	11.1	Active	MST [29]: 0.3 days; MST [23]: 8.1 days; MST [30]: 7.9 days; MST [31]: 5.3 days; MST [32]: 4.5 days; Activity [25]: Active; Activity [26]: Active; Activity [27]: Active; Activity [28]: Active; MST [33]: 0 days; MST [34]: 0 days; MST [35]: 0 days; MST [36]: 0 days; MST [37]: 0 days; MST [38]: 0 days

From ChEMBL document CHEMBL3272271, “Folate antagonists. 13. 2,4-Diamino-6-](alpha,alpha,alpha-trifluoro-m-tolyl)thio]quinazoline and related 2,4-diamino-6-[(phenyl- and naphthyl)thio]quinazolines, a unique class of antimetabolites with extraordinary antimalarial and antibacterial effects” (J Med Chem, 1978)
